According to PubChem BioAssay (NCI):
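96-well plates; 48 h exposure; 5 concentrations. Endpoints by linear interpolation between flanking doses. Not reached: highest tested concentration assigned. GI50 marks 50% less growth. TGI denotes the concentration required for complete inhibition of growth.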

Experiments:
Assay in all cases: NCI tumour cell line growth inhibition, 48 h
[1] = test system: SF-539 CNS
[2] = test system: EKVX NSCLC
[3] = test system: SF-268 CNS
[4] = test system: 786-0 renal
[5] = test system: IGROV1 ovarian
[6] = test system: NCI-H460 lung
[7] = test system: OVCAR-5 ovarian
[8] = test system: NCI-H522 lung
[9] = test system: SNB-75 CNS
[10] = test system: MOLT-4 leukemia

Row | SMILES | GI50 [1] [µM] | TGI [1] [µM] | GI50 [2] [µM] | TGI [2] [µM] | GI50 [3] [µM] | TGI [3] [µM] | GI50 [4] [µM] | TGI [4] [µM] | GI50 [5] [µM] | TGI [5] [µM] | GI50 [6] [µM] | TGI [6] [µM] | GI50 [7] [µM] | TGI [7] [µM] | GI50 [8] [µM] | TGI [8] [µM] | GI50 [9] [µM] | TGI [9] [µM] | GI50 [10] [µM] | TGI [10] [µM]
1 | COc1cc(/C=N/NC(=O)c2ccccc2Nc2cccc(C(F)(F)F)c2)cc(OC)c1OC | 2.14 | 5.62 | 3.08 | 19.5 | 2.05 | 7.99 | 3.22 | 11.6 | 4.19 | 14.2 | 2.3 | 6.33 | 11.8 | 33.1 | 6.1 | 24.6 | 1.54 | 10.4 | 3.14 | 15.3
2 | C=CC(C)(O)CC/C=C(\CO)C(=O)OC1C(C)OC(O[C@](C)(C=C)CC/C=C(\CO)C(=O)O[C@H]2C[C@@]3(C(=O)OC4OC(CO)C(O)C(O)C4OC4OC(C)C(OC5OC(CO)C(O)C5O)C(OC5OC(CO)C(O)C(O)C5O)C4O)C(CC2(C)C)C2=CCC4[C@@]5(C)CC[C@H](OC6OC(COC7OC(C)C(O)C(O)C7OC7OCC(O)C(O)C7O)C(O)C(O)C6NC(C)=O)C(C)(C)C5CC[C@@]4(C)[C@]2(C)C[C@H]3O)C(O)C1O (stereo not given in full) | 4.86 | 9.77 | 0.901 | 5.02 | 0.174 | 0.893 | 0.155 | 0.668 | 2.96 | 9.63 | 3.72 | 9.79 | 1.38 | 5.95 | 0.341 | 1.61 | 0.154 | 0.894 | 0.886 | 12.9
3 | Cc1ccccc1NC(=O)Cc1csc(N=Nc2c(O)[nH]c3ccccc23)n1 |  | 32.3 |  | > 100 |  | > 100 |  | > 100 |  | > 100 |  | > 100 |  | > 100 |  | 41.2 |  | > 100 |  | > 100
4 | CC(C)NC(=O)OCc1c(COC(=O)NC(C)C)c(-c2cc[n+](COC(=O)C3CCCCC3)cc2)n2c1CCC2 |  | > 100 |  | > 100 |  | > 100 |  | > 100 |  | > 100 |  | > 100 |  | > 100 |  | > 100 |  | > 100 |  | > 100
5 | CC(=O)[C-](C(C)=O)c1ccccc1.CC(=O)[C-](C(C)=O)c1ccccc1.CC(=O)[C-](C(C)=O)c1ccccc1.[Cl-].[Zr+4] | 86.7 | > 100 | > 100 | > 100 | 61.7 | > 100 | 38.7 | > 100 | > 100 | > 100 | > 100 | > 100 | > 100 | > 100 | > 100 | > 100 | 33 | 83.9 | > 100 | > 100
6 | CC(C)N1C(C)[C@@H](c2ccccc2)O[P@]1(=O)CC1=CCCCC1 (stereo not given in full) |  | > 100 |  | > 100 |  | > 100 |  | > 100 |  | > 100 |  | > 100 |  | > 100 |  | > 100 |  | > 100 |  | > 100
7 | CC(C)(C)Sc1nnc(SC(C)(C)C)c2c(=O)[nH]nc(SC(C)(C)C)c12 |  | 22.6 |  | 24.6 |  | 21.2 |  | 22.3 |  | 22 |  | 19.5 |  | 16.9 |  | 14.2 |  | 24.3 |  | 15.7
8 | O=S1(=O)c2ccccc2N=C(c2ccccc2Cl)CC1c1ccc(F)cc1 (stereo not given) |  | 35.7 |  | 36.2 |  | 47.4 |  | 30.5 |  | 37.4 |  | 34.6 |  | 30.7 |  | 26.9 |  | 47.8 |  | 51.7
9 | O=Cc1ccc(N2CCN(c3ccc(C=O)cc3)CC2)cc1 | > 100 | > 100 | > 100 | > 100 | > 100 | > 100 | > 100 | > 100 | 45.8 | > 100 | 77.2 | > 100 | 2.6 | 8.09 | 43.1 | > 100 | > 100 | > 100 | > 100 | > 100
10 | O=S(=O)(O)SCCNCCCCCC1CCCCC1 |  | 19.6 |  | 22.9 |  | 23.5 |  | 28 |  | 20.7 |  | 9.16 |  | 23.8 |  | 37.3 |  | 16.3 |  | > 31
11 | O=C(/C=C/c1cccc2ccccc12)Nc1ncc(Cc2ccccc2)s1 | 0.716 | 2.92 | 1.12 | > 100 | 2.61 | > 100 | 0.704 | 3.27 | 1.27 | > 87.3 | 0.861 | 5.19 | 1.98 | > 100 | 0.703 | > 32.8 | 0.344 | 1.55 | 1.65 | > 100
12 | CN1CCN(c2ccc3nc(-c4ccc(OCCCCN5CCN(CCCCN6C(=O)c7cccc8cccc(c78)C6=O)CC5)cc4)[nH]c3c2)CC1 | 33.5 | > 100 | > 100 | > 100 | > 100 | > 100 | > 100 | > 100 | 48.4 | > 100 | 63.4 | > 100 | > 100 | > 100 | 52.9 | > 100 | 28.9 | > 100 | 51.1 | > 100
13 | O=C1/C(=C\c2ccccc2)C2OCC=C3CN4CCC56c7ccccc7N1C5C2C3CC46 (stereo not given) | 61.9 | > 100 | 70.5 | > 100 | 79.3 | > 100 | 9.86 | > 100 | 4.69 | > 100 | 6.4 | > 100 | > 100 | > 100 | 8.01 | > 100 | 14.7 | > 100 | 7.23 | > 100
14 | O=C1CCC(=O)c2sccc2N1 |  | > 100 |  | > 100 |  | > 100 |  | > 100 |  | > 100 |  | > 100 |  | > 100 |  | > 100 |  | > 100 |  | > 100
